According to patent US11360080B2, “AhR-ROR-γt complex as a biomarker and therapeutic target for autoimmune disease and IL-17A-associated disease” (NATIONAL HEALTH RESEARCH INSTITUTES, priority 2018, dated 2022):
Counter-ions that a name gives are not always drawn.

How the values were obtained:
[1] = biological target: T1, GLK−IQGAP1 complex (Mus musculus, UniProt Q99JP0); assay: In situ PLA in lung tissues of mice of the LLC/luc metastatic lung cancer model; type: in vivo
T1 construct: from tissue; host or cells: mouse lung tissue (LLC/luc metastatic lung cancer model)
Description: (A) The molecular docking of GLK kinase domain structure with C1 (verteporfin). A three-dimensional structure model depicts the binding of C1 to the predicted GLK kinase domain containing phosphorylated Ser-170. The putative binding affinity was −7.4 kcal/mol. (B) The molecular docking of GLK kinase domain structure with C2 (alexidine dihydrochloride). A three-dimensional structure model depicts the binding of C2 to the predicted GLK kinase domain containing phosphorylated Ser-170. The putative binding affinity was −7.0 kcal/mol. (C) Co-immunoprecipitation (co-IP) of Flag-tagged GLK and GFP-fusion GLK using lysates of HEK293T cells co-transfected with Flag-GLK and GFP-GLK plasmids. Cells were treated with C1 (verteporfin) or C2 (alexidine dihydrochloride). (D) Administration of the GLK inhibitor C1 (0.556 nmole/g) or C2 (0.085 nmole/g) every 3 days for 30 days in the LLC/luc metastatic lung cancer mouse model. (E) The luciferase activity in mice treated with C1 (verteporfin), C2 (alexidine dihydrochloride), or vehicle was detected by IVIS Spectrum. (F) Luminescent intensity of photons emitted from LLC/luc cells in the images in (e) was quantified. (G) Representative immunohistochemistry of H&E in lung tissues from mice treated with C1 (verteporfin), C2, or vehicle. Scale bar, 0.5 cm. (H) In situ PLA assays of the interaction between GLK and IQGAP1 (upper panel) or phosphorylated IQGAP1 Ser-480 (lower panel) in lung tissues from mice treated with C1 (verteporfin), C2 (alexidine dihydrochloride), or vehicle in the LLC/luc metastatic lung cancer mouse model. Original magnification, ×40.
For experiments using human pulmonary tissues, tissue sections were deparafinized, antigen retrieved, and nonspecific-binding blocked, followed by in situ PLA assays using primary antibodies for IQGAP1 (1:4,000, CUSABIO) plus either GLK (1:3,000, mAb clone C3) or phospho-IQGAP1 Ser-480 (1:2,000, Allbio Science). The monoclonal antibody for phosphorylated IQGAP1 Ser-480 was generated by immunization of a mouse with phospho-peptides (human IQGAP1 epitope: ^473NTVWKQL[pS] SSVTGLT^487; SEQ ID NO: 32). The tissue sections were then incubated with species-specific secondary antibodies conjugated with oligonucleotides ([…]), followed by ligation and amplification reactions. The number of PLA signals for GLK−IQGAP1 complex or phosphorylated IQGAP1 per tissue (3.14 mm^2) was counted.

[2] = biological target: T2, GLK (MAP4K3) (Homo sapiens, UniProt Q8IVH8); assay: In vitro kinase assay, recombinant kinase domain, myelin basic protein (MBP) as substrate; type: biochemical
T2 construct: Recombinant proteins of kinase domains of various MAP4Ks were used
Protocol: GLK kinase activity was determined by measuring the rate of ADP production in the in vitro kinase reaction using ADP-GLO™ Kinase Assay kit. For the kinase reaction, recombinant proteins of the GLK kinase-domain (1 μg) were incubated with recombinant proteins of kinase-dead PKCθ (K409W; 0.15 μg) plus ATP (0.1 mM) or myelin basic protein (MBP) plus ATP (0.1 mM) in kinase buffer (40 mM Tris-HCl, pH7.5.20 mM MgCl2, 0.1 mg/ml BSA, 10 mM DTT and 0.1 mM Na3VO4) for 30 min at room temperature. We studied whether GLK inhibitors also suppress cancer cell migration. […] Moreover, both C1 (verteporfin) and C2 (alexidine dihydrochloride) treatments suppressed tumor growth in the xenograft mouse model using TC-1 lung cancer cells (FIG. 15). To study whether GLK deficiency results in a reduction of lung cancer metastasis, we used a metastatic Lewis lung carcinoma (LLC) mouse model by tail vein injection of luciferase-expressing LLC (LLC/luc) cells. We identified two GLK inhibitors (verteporfin and alexidine dihydrochloride)) using cell-based assays and in vitro kinase assays. […] The luciferase activity of LLC/luc cells in the mice was detected by In Vivo Imaging System. […] Inhibition of kinase activity of GLK (MAP4K3) or other MAP4Ks was determined by in vitro kinase assays using myelin basic protein (MBP) as a substrate. […]

T1 sequence (Q99JP0 whole entry, one chain of several): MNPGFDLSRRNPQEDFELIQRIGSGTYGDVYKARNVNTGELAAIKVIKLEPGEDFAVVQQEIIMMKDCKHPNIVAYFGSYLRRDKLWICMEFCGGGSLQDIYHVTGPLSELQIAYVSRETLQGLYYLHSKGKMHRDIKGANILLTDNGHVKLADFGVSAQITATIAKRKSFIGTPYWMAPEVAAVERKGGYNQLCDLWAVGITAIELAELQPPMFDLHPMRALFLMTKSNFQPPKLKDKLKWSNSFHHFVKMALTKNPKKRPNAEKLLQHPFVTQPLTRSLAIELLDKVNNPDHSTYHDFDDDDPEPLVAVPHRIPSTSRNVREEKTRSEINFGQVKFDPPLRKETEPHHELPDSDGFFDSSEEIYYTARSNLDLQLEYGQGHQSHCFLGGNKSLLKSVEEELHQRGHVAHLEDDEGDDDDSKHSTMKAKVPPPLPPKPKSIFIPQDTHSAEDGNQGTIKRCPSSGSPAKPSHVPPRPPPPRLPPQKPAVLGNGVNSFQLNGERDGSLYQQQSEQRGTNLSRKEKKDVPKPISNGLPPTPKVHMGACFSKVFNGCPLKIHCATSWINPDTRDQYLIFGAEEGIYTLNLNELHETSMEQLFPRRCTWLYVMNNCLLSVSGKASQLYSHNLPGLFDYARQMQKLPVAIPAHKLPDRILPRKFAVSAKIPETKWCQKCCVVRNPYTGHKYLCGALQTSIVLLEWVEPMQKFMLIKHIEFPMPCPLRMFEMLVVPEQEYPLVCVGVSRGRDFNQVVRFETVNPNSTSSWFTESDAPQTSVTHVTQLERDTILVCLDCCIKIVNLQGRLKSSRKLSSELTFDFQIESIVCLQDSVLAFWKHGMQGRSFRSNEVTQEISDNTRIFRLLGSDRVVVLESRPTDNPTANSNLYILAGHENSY
T2 sequence (Q8IVH8 16-273 limits assumed): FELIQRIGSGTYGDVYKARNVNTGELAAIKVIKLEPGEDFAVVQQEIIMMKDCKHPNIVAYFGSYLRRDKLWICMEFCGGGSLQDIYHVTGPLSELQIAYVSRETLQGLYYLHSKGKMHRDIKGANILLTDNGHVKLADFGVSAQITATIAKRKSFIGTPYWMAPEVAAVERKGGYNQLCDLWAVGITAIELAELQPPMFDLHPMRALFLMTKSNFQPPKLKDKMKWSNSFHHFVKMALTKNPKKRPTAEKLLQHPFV

Row | SMILES | IQGAP1 (Ser-480) phosphorylation in the lung tissues [1] | interaction between GLK and IQGAP1 in the lung tissues [1] | IC50 [2]
1 | C=Cc1c(C)c2cc3nc(cc4[nH]c(cc5nc(cc1[nH]2)C(C)=C5CCC(=O)O)c(CCC(=O)OC)c4C)[C@@]1(C)C3=CC=C(C(=O)OC)[C@H]1C(=O)OC [C1, verteporfin] | inhibited | inhibited | 1.15 nM
2 | CCCCC(CC)CNC(=N)NC(=N)NCCCCCCNC(=N)NC(=N)NCC(CC)CCCC (stereo not drawn) [C2, alexidine dihydrochloride] | inhibited | inhibited | 10.1 nM
